In patent publication US7824672B2, “Method for coating living cells” (Emory University, priority 2004, dated 2010):
Residues, ends and D or L forms follow the SMILES beside them. *: point of attachment. Cbz = O=C(OCc1ccccc1)*; CH2F = FC*

Tests used:
[1] = biotin binding sites; cited from earlier work
[2] = test system: islet-induced coagulation; conditions: ex vivo model; cited from earlier work
Factor V = conditions: cited from earlier work
[3] = systemic; cited from earlier work
rat islets = experiment: Viability of encapsulated rat islets after overnight culture; type: cell-based; conditions: nicotinamide 10 mM, Z-VAD.fmk 40 μM
Procedure: Transplantation of islets microencapsulated within a membrane-mimetic barrier. Evaluation of cell viability. Initial experiments used CHO cells as a readily available model system to assess cell viability after encapsulation. Cells were suspended into alginate solution at 6×10^6 cells/mL and then coated with a photopolymerized membrane-mimetic lipid film. Cell viability of >95% at 24 and 48 hours was confirmed using a Live/Dead cell assay (Molecular Probes, Inc.). In the next phase of this effort, we determined the viability of encapsulated rat islets (103). Rat islets were isolated from outbred male Wistar rats and suspended at a concentration of 1000 islets in 0.25 mL of 2% alginate (UP LVM, Pronova Biomedical, Norway). Alginate encapsulated islets were coated with a membrane-mimetic film and after overnight culture viability was graded with respect to the proportion of viable cells within a given islet.

[4] = CD39 ATPase activity kinetics (inorganic phosphate release); type: biochemical; conditions: substrate ATP 50-1500 μM; vesicles: molar ratio CD39:POPC 1:33,613
From the text: (§1) We have expressed and purified human CD39 from Pichia pastoris and confirmed both ecto-ATPase and ecto-ADPase activity. […] Briefly, the plasmid carrying the CD39 human coding sequence was provided by Dr. Simon C. Robson (Harvard Medical School, USA). Polymerase chain reaction (PCR) was utilized to add a Kozak sequence flanked by EcoRI to the […] of CD39 and a FLAG tag flanked by XbaI to the 3′ end of CD39. The construct was harbored in pCR 2.1-TOPO (Invitrogen, San Diego, Calif.) and multiplied in One Shot Top10 (Invitrogen). To express CD39 in yeast, the EcoRI/XbaI digestion product was cloned into pPICZ (Invitrogen) and transformed into Pichia pastoris strain SMD1168 (Invitrogen). The expression construct was confirmed through DNA sequencing analysis. P. pastoris cultures were grown at 30° C. and expression induced for 4 days with 0.5% methanol. Cells were harvested, resuspended in breaking buffer, and cell lysates centrifuged to separate membrane and soluble fractions. […] CD39 was extracted from membrane fractions using 1% Igepal CA-630 and purified on anti-FLAG M2 affinity columns (Sigma, Saint Louis, Mo.). Kinetic parameters were measured for both detergent-solubilized CD39 and for protein reconstituted in POPC lipid vesicles at varying molar ratios of CD39 to lipid (1:85,714, 1:33,613, 1:16,806). […] Inorganic phosphate was measured as described by Ames (116). […]

[5] = CD39 ADPase activity kinetics (inorganic phosphate release); type: biochemical; conditions: substrate ADP 50-1500 μM; vesicles: molar ratio CD39:POPC 1:33,613
From the text: as §1

Molecule: avidin: biotin binding protein with four biotin binding sites
- binding affinity (log) [1]: > 15

Molecule: heparin
- concentration that prevented islet-induced coagulation [2]: 4 U/mL blood
- enhancement of APC's ability to inactivate Factor V (Factor V): four-fold
- half-life [3]: one hour

Molecule: NC(=O)c1cccnc1 [nicotinamide]
- effect of anti-apoptotic agent on islet viability (rat islets): important adjuncts for maximizing islet viability

Molecule: COC(=O)C[C@H](NC(=O)[C@H](C)NC(=O)[C@@H](NC(=O)OCc1ccccc1)C(C)C)C(=O)CF [Z-VAD.fmk] (Cbz-Val-Ala-Asp(OMe)-CH2F)
- effect of anti-apoptotic agent on islet viability (rat islets): important adjuncts for maximizing islet viability

B1: Free CD39: detergent-solubilized human CD39 expressed in Pichia pastoris, FLAG tagged (protein, UniProt P49961 1-510, looked up)
Ectonucleoside triphosphate …: MEDTKESNVKTFCSKNILAILGFSSIIAVIALLAVGLTQNKALPENVKYGIVLDAGSSHTSLYIYKWPAEKENDTGVVHQVEECRVKGPGISKFVQKVNEIGIYLTDCMERAREVIPRSQHQETPVYLGATAGMRLLRMESEELADRVLDVVERSLSNYPFDFQGARIITGQEEGAYGWITINYLLGKFSQKTRWFSIVPYETNNQETFGALDLGGASTQVTFVPQNQTIESPDNALQFRLYGKDYNVYTHSFLCYGKDQALWQKLAKDIQVASNEILRDPCFHPGYKKVVNVSDLYKTPCTKRFEMTLPFQQFEIQGIGNYQQCHQSILELFNTSYCPYSQCAFNGIFLPPLQGDFGAFSAFYFVMKFLNLTSEKVSQEKVTEMMKKFCAQPWEEIKTSYAGVKEKYLSEYCFSGTYILSLLLQGYHFTADSWEHIHFIGKIQGSDAGWTLGYMLNLTNMIPAEQPLSTPLSHSTYVFLMVLFSLVLFTVAIIGLLIFHKPSYFWKDMV
modifications: FLAG tag
notes: detergent-solubilized human CD39 expressed in Pichia pastoris, FLAG tagged
- Km [4]: 58.5 µM
- Km [5]: 45.8 µM
